Data from publication PMC12530846, “Development of Novel Anticancer Pyrazolopyrimidinones Targeting Glioblastoma” (Chemmedchem, 2025).

Legend:
Assay type in all cases: cell-based, human
[1] = tested on: U‐251 MG and HEK293 cells; assay: Statistical comparison of dose–response in U‐251 MG versus HEK293 (selectivity, HIT criteria); details: for Selectivity for cancer cells with IC50 < 50 [µM]‐Yes/No: HEK293 IC50 higher than U‐251 MG IC50, U‐251 MG IC50 below 50 µM; for All criteria met -Yes/No: HIT criteria and statistical testing, Table S1
U‐251 MG cells [2] = assay: MTT cell viability assay, U‐251 MG glioblastoma cells, 5 days treatment; details: for IC50: 5 days treatment, 100–0 µM; for cytotoxicity / biological effect on U‐251 MG, in words: 5 days, up to 100 µM
Protocol: (§1) Dose–response curves for each of the pyrazolo[1,5‐α]pyrimidinones were performed to determine the cytotoxic effect of the compounds on a cancerous, U‐251 MG cell line and a noncancerous, HEK293 cell line. The synthesized pyrazolopyrimidinones were dissolved in DMSO (Merck) to obtain a stock solution which was stored at −20 °C. […] U‐251 MG and HEK293 cells were seeded at a density of 2 x 10^3 cells per well (100 μL) in a 96‐well plate (Sarstedt) and incubated for 24 h prior to each treatment to allow for cell adhesion. The stock solution was diluted in media to working concentrations of 100, 75, 50, 25, 10, 5, and 0.1 μM. Media on the seeded cells was then replaced with the working concentrations of the compound or the controls in a 96‐well plate (100 μL). The treated plate was incubated at 37 °C in the humidified incubator for 5 days. Cell viability was assessed after 5 days using the MTT assay. Dose–response curves were then plotted relative to the positive control whereby cells were treated 20% DMSO and a negative control whereby cells were maintained in fresh DMEM.
(§2) To determine the extent of the cytotoxic effect of the pyrazolopyrimidinone on each cell line, the cell viability at each working concentration was determined via the MTT assay (Merck). The working solution of MTT used was 5 mg MTT per 1 ml of PBS diluted in 9 ml of media. After 5 days of incubation, the treatment was removed from each of the wells and replaced with 100 μL of fresh MTT solution. The plate was then incubated for 3 h at 37 °C in a humidified incubator to allow the reduction of the yellow tetrazolium salt to purple formazan crystals. After the incubation, the MTT solution was removed from the wells and replaced with 100 μL of DMSO for 15 min to dissolve the formazan crystals. The absorbance was read at 570 nm using a spectrophotometric microplate reader (Thermo Fisher Scientific).
(§3) Each of the experiments was performed at least three independent times, with a minimum of six technical replicates per experiment. Statistical analysis was carried out using GraphPad Prism version 8.0.0 (GraphPad Softwares, Inc.). Curve fitting and the IC50 values were obtained through the dose–response curves using nonlinear regression. To determine if the dose–response curves were statistically distinct and not overlapping, extra sum‐of‐squares F‐test was used, and a p‐value was obtained. The effect of compound treatment on both cell lines was statistically compared via two‐way ANOVA with Tukey's post‐test. The CytExpert (Beckman Coulter) software was used for flow cytometry analysis. Graphs represent the % dead cells whereby the total number of dead cells was divided by the total cell population. The statistical significance of the flow cytometry results was determined via one‐way analysis of variance (ANOVA) with Dunnett's T3 multiple comparison post‐test. Data is presented as the mean ± standard error of mean (SEM). Summary of results from statistical analysis reports p‐values as follows: ≥0.05 (ns), 0.01–0.05 (*), 0.001–0.01 (**), […], and <0.0001(****).

HEK293 cells = assay: MTT cell viability assay, noncancerous HEK293 cells, 5 days treatment; details: for IC50: 5 days treatment, 100–0 µM; for cytotoxicity / biological response in HEK293, in words: 5 days, up to 100 µM, threshold 50 µM
Protocol: as §1, §2, §3

U‐251 MG cells [3] = assay: Propidium iodide (PI) flow cytometry, cell membrane permeabilization; details: 5 days; for PI: significance of cell death, Neg Ctrl v HNT: highest non-toxic concentration
Protocol: Propidium iodide (PI) is a DNA staining, cell membrane impermeable dye which was used to assess cell death via loss of membrane integrity and is used to indicate necrotic or late apoptotic cells. Stock solutions of PI dye (Merck, Ireland) were prepared at 10 μg/mL in PBS and stored at −20 °C. U‐251 MG cells were seeded in 96‐well plates at a seeding density of 2 x 10^3 cells per well (100 μL), as previously stated. […] Subsequently, the compound was collected in 15 ml falcon tubes. Cells were washed with PBS (100 μL), and the PBS was collected in corresponding tubes to ensure all cells are collected. The cells were collected using 0.25% trypsin‐EDTA (50 μL) with a 6‐min incubation and media neutralization (100 μL). Each tube was centrifuged at 1200rpm for 5 min to obtain a pellet. The supernatant was removed, and the pellet was resuspended in PBS and transferred to an Eppendorf tube. Ten microliters of PI stain (2.5 μg/ml) was added to the Eppendorf tubes, and the tubes were incubated for a period of 15 min. Cells were also treated using controls whereby the positive control used was DMEM and 20% DMSO and the negative control used was fresh media. The cells were then analyzed using flow cytometry (Beckmann Coulter, CytExpert version 2.4.0.28). Fluorescence was measured using the FL2 channel. PI was detected in the red channel which is R‐phycoerythrin (PE‐Cy5). PE was used in combination with fluorescein isothiocyanate (FITC) and is excited at a wavelength of 488 nm.
as §3

U‐251 MG cells [4] = assay: JC‐1 flow cytometry, mitochondrial membrane depolarization / apoptosis; details: 5 days; for apoptosis observed (JC-1): example analysis, negative control 8.64 %; for JC-1: significance of cell death, Neg Ctrl v HNT / JC-1: significance of cell death, Neg Ctrl v 50 µM: U‐251 MG; for JC-1: significance of cell death, Neg Ctrl v 50 µM: highest toxic concentration 50 µM
Protocol: JC‐1 dye forms aggregates in healthy mitochondria which changes the fluorescent property of the dye. […] Stock solutions of JC‐1 dye (Merck) were prepared at 1 mg/mL in DMSO and stored at −20 °C. U‐251 MG cells were seeded in 6‐well plates (Sarstedt) at a seeding density of 2 x 10^4 cells per well (1000μL) after which cells were treated with drug concentrations (highest toxic, IC50, nontoxic). After 5 days incubation, the compound and wash step with PBS was collected in falcon tubes. The cells were then harvested by trypsinization (500 μL), incubated for a period of 6 min, neutralized with media (1000 μL), and pelleted at 1200rpm for 5 min. A JC‐1 working solution of 2 μg/mL was made up in DMEM and was light protected. The cell pellet was resuspended and stained with 2 μg/mL JC‐1 dye and incubated and protected from the light for a period of 10 min. Cells were then centrifuged at 1200rpm for 5 min. The supernatant was removed, and cells were washed with 1 mL of sterile PBS. This was repeated twice. […] Cells were also treated using controls whereby the positive control used was DMEM and 20% DMSO and the negative control used was fresh media. The cells were then analyzed using flow cytometry (Beckmann Coulter, CytExpert version 2.4.0.28). Fluorescence was measured using FL1 (FITC) (530 nm) and FL2 (PE) (595 nm) channels with emission.
as §3

[5] = highest non-toxic concentration

SMILES | Selectivity for cancer cells with IC50 < 50 [µM]‐Yes/No [1] | IC50 (U‐251 MG cells [2]; Homo sapiens, U-251, 120 h) [µM] | IC50 (HEK293 cells; Homo sapiens, HEK293, 120 h) [µM] | cytotoxicity / biological response in HEK293, in words (HEK293 cells) | All criteria met -Yes/No [1] | further results
Cc1cc(=O)n2nc(C(C)C)cc2[nH]1 [Compound 1] | No |  |  |  |  | 
CC(C)c1cc2[nH]c(-c3ccccc3)cc(=O)n2n1 [Compound 2] | No | < 20 | 9.8 |  |  | IC50 (U‐251 MG cells [2]): 20.6 µM
Cc1cc(C)cc(-c2cc(=O)n3nc(C(C)C)cc3[nH]2)c1 [Compound 3] | No |  | 6.52 |  |  | 
CC(C)c1cc2[nH]c(-c3cc(C(F)(F)F)cc(C(F)(F)F)c3)cc(=O)n2n1 [Compound 4] | No | < 20 | 7.38 |  |  | IC50 (U‐251 MG cells [2]): 14 µM
O=c1cc(-c2cc(C(F)(F)F)cc(C(F)(F)F)c2)[nH]c2cc(-c3ccccc3)nn12 [Compound 5] | Yes |  |  | did not elicit any biological response | Yes | cell membrane permeabilization‐dependent cell death (PI), in words (U‐251 MG cells [3]): did not induce cell death by cell wall permeabilization; apoptosis observed (JC-1) (U‐251 MG cells [4]; IC50 concentration): 15.55%; apoptosis observed (JC-1) (U‐251 MG cells [4]; [5]): 14.34%; apoptosis observed (JC-1) (U‐251 MG cells [4]; highest toxic concentration): 52.97%
O=c1cc(-c2cc(C(F)(F)F)cc(C(F)(F)F)c2)[nH]c2cc(-c3ccc(F)cc3)nn12 [Compound 6] | No | 52.2 | 68.2 |  |  | 
O=c1cc(-c2cc(C(F)(F)F)cc(C(F)(F)F)c2)[nH]c2cc(-c3ccc(Br)cc3)nn12 [Compound 7] | Yes | < 50 | > 50 | did not elicit any biological response | Yes | IC50 (U‐251 MG cells [2]): 29.8 µM; IC50 (HEK293 cells): 60.9 µM; cell membrane permeabilization‐dependent cell death (PI), in words (U‐251 MG cells [3]): significant cell membrane permeabilization‐dependent cell death; PI: significance of cell death, Neg Ctrl v HNT (U‐251 MG cells [3]): * (0.01 to 0.05 (*)); JC-1: significance of cell death, Neg Ctrl v HNT (U‐251 MG cells [4]; [5]): ns (≥0.05 (ns)); JC-1: significance of cell death, Neg Ctrl v 50 µM (U‐251 MG cells [4]): **** (<0.0001(****))
O=c1cc(-c2cc(C(F)(F)F)cc(C(F)(F)F)c2)[nH]c2cc(-c3ccc(Cl)cc3)nn12 [Compound 8] | Yes | < 30 | > 50 | did not elicit any biological response |  | IC50 (U‐251 MG cells [2]): 17.3 µM; IC50 (HEK293 cells): 52.4 µM
O=c1cc(-c2cc(C(F)(F)F)cc(C(F)(F)F)c2)[nH]c2cc(-c3ccc([N+](=O)[O-])cc3)nn12 [Compound 10] | Yes |  | > 50 | did not elicit any biological response | Yes | IC50 (HEK293 cells): 73.8 µM; cell membrane permeabilization‐dependent cell death (PI), in words (U‐251 MG cells [3]): significant cell membrane permeabilization‐dependent cell death; PI: significance of cell death, Neg Ctrl v HNT (U‐251 MG cells [3]): ns (≥0.05 (ns)); JC-1: significance of cell death, Neg Ctrl v HNT (U‐251 MG cells [4]; [5]): * (0.01 to 0.05 (*)); JC-1: significance of cell death, Neg Ctrl v 50 µM (U‐251 MG cells [4]): *** (0.001 to 0.01(***))
COc1ccc(-c2cc3[nH]c(-c4cc(C(F)(F)F)cc(C(F)(F)F)c4)cc(=O)n3n2)cc1 [Compound 11] | No | 23.5 | < 30 |  | No | IC50 (HEK293 cells): 29.5 µM
O=c1cc(-c2cc(C(F)(F)F)cc(C(F)(F)F)c2)[nH]c2cc(-c3cccc(Cl)c3)nn12 [Compound 12] |  | 21.7 | < 30 |  | No | IC50 (HEK293 cells): 29.5 µM
O=c1cc(-c2cc(C(F)(F)F)cc(C(F)(F)F)c2)[nH]c2cc(-c3ccco3)nn12 [Compound 13] |  |  |  | no cytotoxicity | No | cytotoxicity / biological effect on U‐251 MG, in words (U‐251 MG cells [2]): no cytotoxicity
Cc1cc(=O)n2nc(-c3ccccc3)cc2[nH]1 [Compound 14] |  | 81.5 |  | did not elicit a biological effect | No | cytotoxicity / biological effect on U‐251 MG, in words (U‐251 MG cells [2]): did not elicit a biological effect
Cc1cc2[nH]c(C)cc(=O)n2n1 [Compound 16] |  |  |  |  | No | 
CC(C)(C)c1cc2[nH]c(-c3ccccc3)cc(=O)n2n1 [Compound 17] |  | 76.6 |  |  | No | 
CC(C)c1cc2[nH]c(C(C)C)cc(=O)n2n1 [Compound 18] | No | 170 | 118 |  | No | 
CCc1cc(=O)n2nc(C(C)C)cc2[nH]1 [Compound 19] |  | 154 |  |  | No | 
O=c1cc(-c2cc(C(F)(F)F)cc(C(F)(F)F)c2)[nH]c2cc(-c3cccc(C(F)(F)F)c3)nn12 [Compound 20] |  | 31 |  |  | No | 
O=c1cc(-c2cc(C(F)(F)F)cc(C(F)(F)F)c2)[nH]c2cc(-c3cccc([N+](=O)[O-])c3)nn12 [Compound 23] | Yes | 29.6 | 60.3 |  |  | IC50 (U‐251 MG cells [2]): 23.2 µM
